Measurements from ChEMBL document CHEMBL1140658, “Inhibitors of anthrax lethal factor” (Bioorg Med Chem Lett, 2007).
Active and inactive are the calls of the source. The rule behind the calls is not given here.

Legend:
[1] = molecular target: T1, Lethal factor (Bacillus anthracis, UniProt P15917); assay: Inhibition of anthrax lethal factor by FRET assay
T1 sequence (P15917 whole entry): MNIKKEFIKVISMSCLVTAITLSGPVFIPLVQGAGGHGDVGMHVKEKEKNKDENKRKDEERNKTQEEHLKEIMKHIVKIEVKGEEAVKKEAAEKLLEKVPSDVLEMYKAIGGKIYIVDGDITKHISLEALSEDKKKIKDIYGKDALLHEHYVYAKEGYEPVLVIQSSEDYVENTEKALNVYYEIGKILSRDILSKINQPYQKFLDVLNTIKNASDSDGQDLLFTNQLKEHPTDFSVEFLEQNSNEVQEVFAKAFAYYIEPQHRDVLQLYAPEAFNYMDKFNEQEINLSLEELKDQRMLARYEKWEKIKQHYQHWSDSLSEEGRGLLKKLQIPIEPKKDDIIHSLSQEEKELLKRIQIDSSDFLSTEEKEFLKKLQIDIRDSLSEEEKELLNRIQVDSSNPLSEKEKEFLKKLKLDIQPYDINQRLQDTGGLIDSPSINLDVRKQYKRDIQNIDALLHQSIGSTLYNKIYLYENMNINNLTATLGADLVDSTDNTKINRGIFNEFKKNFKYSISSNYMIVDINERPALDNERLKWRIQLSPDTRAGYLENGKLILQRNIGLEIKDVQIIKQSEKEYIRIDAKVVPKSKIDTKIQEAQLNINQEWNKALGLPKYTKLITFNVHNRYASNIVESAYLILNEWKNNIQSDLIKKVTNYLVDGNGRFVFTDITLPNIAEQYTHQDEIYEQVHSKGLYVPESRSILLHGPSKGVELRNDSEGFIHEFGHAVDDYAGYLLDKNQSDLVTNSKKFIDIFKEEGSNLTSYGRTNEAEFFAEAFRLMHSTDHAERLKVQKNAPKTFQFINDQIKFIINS

[2] = molecular target: T2, Lethal factor (Bacillus anthracis) (UniProt P15917); assay: (§1) Inhibition of anthrax lethal factor upto 100 uM by FRET assay
T2 sequence (whole entry): T1 sequence (P15917 whole entry)

[3] = molecular target: T2, Lethal factor (Bacillus anthracis); assay: as §1; remark: listed apart in the source
[4] = tested on: J774.A1; assay: Inhibition of anthrax lethal factor induced J774A.1 cell death by MTT assay; format: functional, cell-based; settings: Mus musculus
[5] = tested on: J774.A1; assay: Cytotoxicity against J774A.1 cells assessed as cell viability upto 30 uM after 4 hrs by MTT assay; format: functional, cell-based; settings: Mus musculus
[6] = tested on: J774.A1; assay: Inhibition of anthrax lethal factor induced J774A.1 cell death at 20 uM by MTT assay; format: functional, Mus musculus; design: scale not given: the % may be the effect or the level left
[7] = tested on: J774.A1; assay: Inhibition of anthrax lethal factor induced J774A.1 cell death at 85 uM by MTT assay; format: functional, cell-based; settings: Mus musculus
[8] = tested on: J774.A1; assay: Cytotoxicity against J774A.1 cells assessed as cell viability at 30 uM after 4 hrs by MTT assay; format: functional, cell-based; settings: Mus musculus

Row | SMILES | IC50 [1] [µM] | Activity [2] | Activity [3] | Ki [1] [µM] | further results
1 | CCCCCCCC/C=C\CCCCCCCC(=O)NCCc1cc(O)c(O)cc1O | 70 | – | – | – | –
2 | CCCCCCCC/C=C\CCCCCCCC(=O)NCCc1ccc(O)cc1 | – | inactive | inactive | – | –
3 | CCCCCCCC/C=C\CCCCCCCC(=O)NCCc1ccc(OC)c(OC)c1 | – | inactive | inactive | – | –
4 | CCCCCCCC/C=C\CCCCCCCC(=O)NCCc1ccc(C(=O)NO)cc1 | 32 | – | – | 6 | –
5 | CCCCCCCC/C=C\CCCCCCCC(=O)NCCc1ccc(O)c(O)c1 [OLEOYL DOPAMINE] | 15 | – | – | 3 | IC50 [4]: 5 µM; Activity [5]: Not toxic
6 | CCCCCCCC/C=C\CCCCCCCC(=O)NCCc1cc(O)c(O)c(O)c1 | 13 | – | – | 1.7 | Activity [6]: 46%; Activity [7]: inactive; Activity [8]: inactive
